Key:
[1] = tested on: wild-type HSV1-tk and HSV1-sr39tk PET reporter genes; test: In vivo imaging of PET reporter genes with reporter probes
Text: Two main categories of substrates, uracil nucleoside derivatives labelled with radioactive iodine (e.g., I-labelled 2′fluoro-2′-deoxy-1-β-D-arabinofura-nosyl-5-iodo-uracilc(FIAU)), and acycloguanosine derivatives labelled with radioactive ^18F-fluorine (e.g., 9-[(4-[^18F]-fluoro-3-hydroxymethylbutyl)guanine (FHBG) and 8-[^18F]fluropenciclorivr (FPCV)), have been investigated as reporter probes for imaging HSV1-tk reporter gene expression.

[2] = tested on: HSV1-sr39tk reporter gene expression in cardiac allografts; test: Micro-PET imaging of [18F]FHBG / [18F]FDG accumulation; type: in vivo; conditions: recipient rabbit with gene transfected donor heart in the neck
Description: Micro-PET scan was performed on postoperative days 2, 4, 6, 8, 12, 20, and 28 in the IL-10 gene therapy group and days 2, 4, 6, and 8 in the control group. Recipient rabbits were intravenously injected with 1 mCi of [^18F]FHBG PET reporter probe. After a 1-h rest to allow for tracer uptake and clearance, the rabbits were imaged with a micro-PET-P4 (Primate P4; Concorde Microsystems, Inc., Knoxville, Tenn., USA) for 45 min over the neck and chest. Micro-PET image data were reconstructed by filtered back-projection and were reoriented into short, vertical, and horizontal long axis slices. From regions of interest on the anterolateral wall (short axis cut), derived counts/pixel/min were converted to counts/ml/min using a calibration constant obtained from scanning a cylindrical phantom. The regions-of-interest (ROI) counts/ml/min were converted to counts/g/min (assuming a tissue density of 1 g/ml) and divided by the injected dose to obtain an image ROI-derived [^18F]FHBG percentage injected dose per gram of heart (% ID/g). The total myocardial accumulation of [^18F]FHBG was corrected for background activity in each region of interest, summed for the 12 slices, and expressed as % ID=(total activity in 12 regions of interest (ROI), left ventricle (LV) (MBq)-total activity in 12 ROI BG (MBq))/injected dose (MBq)×100. […]

| Compound | effectiveness as probe for in vivo imaging, compared with FPCV [1] | localization of probe activity on micro-PET [2] |
| --- | --- | --- |
| Nc1nc2c(ncn2CCC(CO)C[18F])c(=O)[nH]1 (stereo not drawn) [[^18F]FHBG, 9-(4-[^18F]fluoro-3-hydroxymethylbutyl)guanine] | more effective probe | only in targeted donor heart in the neck |
| 2-[^18F]fluoro-2-deoxy-d-glucose [[^18F]FDG] |  | in the donor heart as well as in the recipient's heart and skeletal muscle of limb and neck |

From patent publication US20090169474A1, “METHOD FOR NONINVASNELY AND QUANTITATIVELY MONITORING THERAPEUTIC AND DIAGNOSTIC TRANSGENE EXPRESSION INDUCED BY EX VNO AND IN VNO GENE TARGETING IN ORGANS, TISSUES AND CELLS” (The Regentsf of the University of California, priority 2006, published 2009)
